Laboratory results reported in publication PMC12139422, “Structural basis for phosphatidylcholine synthesis by bacterial phospholipid N-methyltransferases” (The Journal of Biological Chemistry, 2025).

Tests used:
AtPmtAΔN25 [1] = biological target: T1, AtPmtAΔN25 (Agrobacterium fabrum, UniProt A9CKE9); test: X-ray crystal structure ([…] Å); format: binding; settings: cocrystallised with SAM at 10:1 ligand-to-protein, pH 8.0, 20 °C; density assigned to MTA as SAM cleavage product; SAM site
T1 construct: gene Atu0300; lacks residues 1-25 (N-terminal amphipathic helix); N-terminal His6-tag cut with HRV 3C protease; expressed in E. coli C43(DE3); full length 197 residues; four molecules in the asymmetric unit
T1 sequence (A9CKE9 26-197): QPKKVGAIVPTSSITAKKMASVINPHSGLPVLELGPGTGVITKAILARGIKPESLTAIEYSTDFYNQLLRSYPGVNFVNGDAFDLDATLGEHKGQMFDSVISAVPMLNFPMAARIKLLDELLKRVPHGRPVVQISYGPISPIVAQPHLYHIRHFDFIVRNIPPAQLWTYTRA

AtPmtAΔN25 [2] = biological target: T1, AtPmtAΔN25; test: X-ray crystal structure ([…] Å) and 1H-15N HSQC NMR titration; format: binding; settings: cocrystallised at 10:1 ligand-to-protein, pH 8.0, 20 °C; NMR titration 0-10 equivalents, pH 7.0, 10 °C; SAM site (Gly-rich loop)

## CSC[C@H]1O[C@@H](n2cnc3c(N)ncnc32)[C@H](O)[C@@H]1O [5′-methylthioadenosine]
AtPmtAΔN25 [1]
  X-ray crystal structure (2.04 Å): Therefore, we assigned the electron density to MTA

## Nc1ncnc2c1ncn2[C@@H]1O[C@H](CSCC[C@H](N)C(=O)O)[C@@H](O)[C@H]1O [SAH]
AtPmtAΔN25 [2]
  X-ray crystal structure (1.95 Å) and 1H-15N HSQC NMR titration: All four AtPmtAΔN25 molecules in the asymmetric unit contained SAH molecules with clear electron densities
